Reference: patent US6025378A, “Bicyclic heterocyclic compounds” (Bayer Aktiengesellschaft, priority 1995, dated 2000)

tested on: ApoB-100-associated lipoproteins released from HepG2 cells; assay: Inhibition of the release of ApoB-100-associated lipoproteins from cultured hepatic HepG2 cells (immunoassay for human LDL); assay type: cell-based; settings: HepG2 cells; culture supernatant; absorption at 450 nm inhibited by 50% vs solvent control; read-out: Apo B IC50
Method: 1. Inhibition of the Release of ApoB-100-associated Lipoproteins
The test for detection of the inhibition of the release of ApoB-100-associated lipoproteins from hepatic cells was carried out in vitro with cultured hepatic cells, preferably with cells of the human line HepG2. These cells are cultured under standard conditions in medium for culture of eukaryotic cells, preferably in RPMI 1640 with 10% foetal calf serum. HepG2 cells synthesize and secrete into the culture supernatant ApoB-100-associated lipoprotein particles, which are in principle built up similarly to the VLDL and LDL particles which are to be found in plasma.
These particles can be detected with an immunoassay for human LDL. This immunoassay is carried out with antibodies which have been induced against human LDL in rabbits under standard conditions. The anti-LDL antibodies (rab-anti-LDL-Ab) were purified by affinity chromatography on an immunosorbent with human LDL. These purified rab-anti-LDL-Ab are adsorbed onto the surface of plastic. This adsorption is expediently carried out on the plastic surface of microtiter plates with 96 wells, preferably on MaxiSorp plates. If ApoB-100-associated particles are present in the supernatant of Hep-G2 cells, these can bond to the insolubilized rab-anti-LDL-Ab, and an immune complex bonded to the plastic surface is formed. Non-bonded proteins are removed by washing The immune complex on the plastic source is detected with monoclonal antibodies, which have been induced against human LDL and purified under standard conditions. These antibodies were conjugated with the enzyme peroxidase. Peroxidase converts the colourless substrate TMB into a coloured product in the presence of H2 O2. After acidification of the reaction mixture with H2 SO4, the specific absorption of light is determined at 450 nm, this being a measure of the amount of ApoB-100-associated particles wich had been secreted by the HepG2 cells into the culture supernatant.
The IC50 value indicates the concentration of substance at which the absorption of light is inhibited by 50% compared with the control (solvent control without the substance).

Row | IC50 [nM] | SMILES
1 | 1690 | Cc1cccc2c1[nH]c(=S)n2Cc1ccc(C(C(=O)N[C@@H](CO)c2ccccc2)C2CCCC2)cc1 (stereo partly shown) [Example 53]
2 | 60.2 | Cc1cccc2c1[nH]c(=S)n2Cc1ccc(C(C(=O)N[C@@H](CO)c2ccccc2)C2CCCC2)cc1 (stereo partly shown) [Example 54]
3 | 19.5 | Cc1cccc2c1[nH]c(=S)n2Cc1ccc(C(C(=O)N[C@@H](CO)c2ccccc2)C2CCCC2)cc1 (stereo partly shown) [Example 55]
4 | 5 | O=C(N[C@@H](CO)c1ccccc1)C(c1ccc(CN2C(=O)COc3cccnc32)cc1)C1CCCCCC1 (stereo partly shown) [Example 57]
5 | 251 | O=C(N[C@@H](CO)c1ccccc1)C(c1ccc(CN2C(=O)COc3cccnc32)cc1)C1CCCCCC1 (stereo partly shown) [Example 58]
6 | 9.7 | O=C(N[C@@H](CO)c1ccccc1)C(c1ccc(CN2C(=O)c3ccccc3C2=O)cc1)C1CCCCCC1 (stereo partly shown) [Example 60]
7 | 38.9 | O=C(N[C@@H](CO)c1ccccc1)C(c1ccc(CN2C(=O)c3ccccc3C2=O)cc1)C1CCCCCC1 (stereo partly shown) [Example 61]
8 | 123 | O=C(N[C@@H](CO)c1ccccc1)C(c1ccc(CN2C(=O)c3ccccc3C2=O)cc1)C1CCCCCC1 (stereo partly shown) [Example 62]
9 | 27.4 | CCc1nc2ccccc2c(=O)n1Cc1ccc(C(C(=O)N[C@@H](CO)c2ccccc2)C2CCCC2)cc1 (stereo partly shown) [Example 67]
10 | 70.6 | CCc1nc2ccccc2c(=O)n1Cc1ccc(C(C(=O)N[C@@H](CO)c2ccccc2)C2CCCC2)cc1 (stereo partly shown) [Example 68]
11 | 37.2 | O=C(N[C@@H](CO)c1ccccc1)C(c1ccc(Cn2nc(-c3ccc(Cl)cc3)c3ccccc3c2=O)cc1)C1CCCC1 (stereo partly shown) [Example 76]
12 | 14.9 | O=C(N[C@@H](CO)c1ccccc1)C(c1ccc(Cn2nc(-c3ccc(Cl)cc3)c3ccccc3c2=O)cc1)C1CCCC1 (stereo partly shown) [Example 77]
13 | 279 | O=C(N[C@@H](CO)c1ccccc1)C(c1ccc(Cn2nc(-c3ccc(Cl)cc3)c3ccccc3c2=O)cc1)C1CCCC1 (stereo partly shown) [Example 78]

same assay, conditions: Homo sapiens, HepG2, HepG2 cells; culture supernatant; absorption at 450 nm inhibited by 50% vs solvent control; read-out: Apo B IC50

Row | IC50 [nM] | SMILES
14 | 2.8 | CCSc1nc2ccccc2n1Cc1ccc(C(C(=O)N[C@@H](CO)c2ccccc2)C2CCCC2)cc1 (stereo partly shown) [Example 9]
15 | 9.5 | C=CCSc1nc2ccccc2n1Cc1ccc(C(C(=O)N[C@@H](CO)c2ccccc2)C2CCCC2)cc1 (stereo partly shown) [Example 10]
16 | 4.7 | O=C(N[C@@H](CO)c1ccccc1)C(c1ccc(Cn2c(SCc3ccccc3)nc3ccccc32)cc1)C1CCCC1 (stereo partly shown) [Example 11]
17 | 130 | O=C(N[C@@H](CO)c1ccccc1)C(c1ccc(Cn2c(SCc3c(Cl)cccc3Cl)nc3ccccc32)cc1)C1CCCC1 (stereo partly shown) [Example 14]
18 | 248 | O=C(N[C@@H](CO)c1ccccc1)C(c1ccc(Cn2c(Cc3ccccc3)nc3ccccc32)cc1)C1CCCC1 (stereo partly shown) [Example 20]
19 | 7.3 | O=C(N[C@@H](CO)c1ccccc1)C(c1ccc(Cn2c(-c3cscn3)nc3ccccc32)cc1)C1CCCC1 (stereo partly shown) [Example 25]
20 | 27.9 | O=C(N[C@@H](CO)c1ccccc1)C(c1ccc(Cn2c(-c3cscn3)nc3ccccc32)cc1)C1CCCCC1 (stereo partly shown) [Example 28]
21 | 9.3 | O=C(N[C@@H](CO)c1ccccc1)C(c1ccc(Cn2c(-c3cscn3)nc3ccccc32)cc1)C1CCCCCC1 (stereo partly shown) [Example 29]
22 | 5.3 | O=C(NCc1ccccc1)C(c1ccc(Cn2c(-c3cscn3)nc3ccccc32)cc1)C1CCCCCC1 (stereo not shown) [Example 32]
23 | 5.3 | Cc1nc(-c2nc3ccccc3n2Cc2ccc(C(C(=O)N[C@@H](CO)c3ccccc3)C3CCCC3)cc2)cs1 (stereo partly shown) [Example 33]
24 | 9.1 | O=C(N[C@@H](CO)c1ccccc1)C(c1ccc(Cn2c(-c3csc(-c4ccccc4)n3)nc3ccccc32)cc1)C1CCCC1 (stereo partly shown) [Example 36]
25 | 3.6 | O=C(N[C@@H](CO)c1ccccc1)C(c1ccc(Cn2c(-c3ccsc3)nc3ccccc32)cc1)C1CCCC1 (stereo partly shown) [Example 37]
26 | 36.3 | Cc1ccc2c(nc(-c3ccsc3)n2Cc2ccc(C(C(=O)N[C@@H](CO)c3ccccc3)C3CCCC3)cc2)c1C (stereo partly shown) [Example 38]
27 | 81.7 | O=C(N[C@@H](CO)c1ccccc1)C(c1ccc(Cn2c(-c3cccs3)nc3ccccc32)cc1)C1CCCC1 (stereo partly shown) [Example 39]
28 | 69 | Cc1ccc2c(nc(-c3cccs3)n2Cc2ccc(C(C(=O)N[C@@H](CO)c3ccccc3)C3CCCC3)cc2)c1C (stereo partly shown) [Example 40]
29 | 10.6 | O=C(N[C@@H](CO)c1ccccc1)C(c1ccc(Cn2c(-c3cc4ccccc4s3)nc3ccccc32)cc1)C1CCCC1 (stereo partly shown) [Example 41]
30 | 11.3 | O=C(N[C@@H](CO)c1ccccc1)C(c1ccc(Cn2c(-c3ccccn3)nc3ccccc32)cc1)C1CCCC1 (stereo partly shown) [Example 44]
31 | 18.8 | O=C(N[C@@H](CO)c1ccccc1)C(c1ccc(Cn2c(-c3ccccn3)nc3ccccc32)cc1)C1CCCCCC1 (stereo partly shown) [Example 47]
32 | 6.3 | O=C(NCc1ccccc1)C(c1ccc(Cn2c(-c3ccccn3)nc3ccccc32)cc1)C1CCCCCC1 (stereo not shown) [Example 48]
33 | 3.6 | O=C(N[C@@H](CO)c1ccccc1)C(c1ccc(Cn2c(-c3cccnc3)nc3ccccc32)cc1)C1CCCC1 (stereo partly shown) [Example 49]
34 | 17.9 | O=C(N[C@@H](CO)c1ccccc1)C(c1ccc(Cn2c(-c3ccncc3)nc3ccccc32)cc1)C1CCCC1 (stereo partly shown) [Example 50]
35 | 5.7 | O=C(N[C@@H](CO)c1ccccc1)C(c1ccc(Cn2c(=O)oc3ccccc32)cc1)C1CCCCCC1 (stereo partly shown) [Example 51]
36 | 518 | O=C(N[C@@H](CO)c1ccccc1)C(c1ccc(Cn2c(=S)[nH]c3ccccc32)cc1)C1CCCCCC1 (stereo partly shown) [Example 52]
37 | 29.2 | O=C(N[C@@H](CO)c1ccccc1)C(c1ccc(CN2C(=O)CSc3ccccc32)cc1)C1CCCCCC1 (stereo partly shown) [Example 59]
38 | 5.9 | O=C(N[C@@H](CO)c1ccccc1)C(c1ccc(CN2C(=O)c3ccncc3C2=O)cc1)C1CCCCCC1 (stereo partly shown) [Example 63]
39 | 58.8 | O=C(N[C@@H](CO)c1ccccc1)C(c1ccc(Cn2ncc3ccccc3c2=O)cc1)C1CCCCCC1 (stereo partly shown) [Example 70]
40 | 29.4 | CCCCc1nn(Cc2ccc(C(C(=O)N[C@@H](CO)c3ccccc3)C3CCCC3)cc2)c(=O)c2ccccc12 (stereo partly shown) [Example 73]
